This is an account of results in patent publication US11066455B2, “Tmem100 peptides and variants thereof and their use in treating or preventing diseases or conditions” (The Johns Hopkins University, priority 2014, dated 2021).

In experiment [1] the test system is ongoing neuropathic pain in SNL rats. In words: Conditioned place preference test for ongoing pain in SNL rats. The format is in vivo, rat. The conditions noted are these: intrathecal 50 μM, 10 μl; scramble peptide-paired chamber as comparison. An excerpt:
Ongoing, or spontaneous, pain, which is most bothersome to patients, is difficult to treat and difficult to study in animals. The conditioned place preference test has been successfully developed to reveal the presence of non-evoked, ongoing pain and pain relief based on the preference of an animal for the context paired with a pain-relief treatment. The conditioned place preference can also capture the aversive aspects of pain. Strikingly, many studies have shown that the rodent conditioned place preference test accurately reflects the effectiveness of human clinical treatments. Therefore, this test is a powerful approach to investigate the potential effectiveness of new treatments and mechanisms for relief of ongoing pain. Two previous studies have examined the role of TRPA1 in ongoing pain by the conditioned place preference test. […] Because the antagonists used in those studies (HC030031 and Chem5861528) target TRPA1 monomers, it is possible that T100-Mut can inhibit ongoing pain by modulating the TRPA1/V1 complex. This possibility was tested in rodents with SNL-induced ongoing pain using the conditioned place preference test. […] Systemic administration of gabapentin, an analgesic that is known to alleviate neuropathic pain, was used as a positive control (FIG. 16B).

The subject of experiment [2] is capsaicin-induced nocifensive behavior in WT mice. The experiment can be described thus: Capsaicin injection: acute nocifensive behavior. Type of experiment: in vivo, mouse. The conditions noted are these: capsaicin 0.6 μg, peptide 2 mM. As to the method:
Mice were injected with 6 μL of capsaicin (0.1 μg/μL in normal saline/10% ethanol/0.5% Tween 80) in the hindpaws. The mice were placed in a plexiglass cylinder, and the total time spent licking and flinching was recorded for the first 10 minutes after injection.
The sequence from the last 28 amino acids of the C-terminus of the Tmem100-3Q mutant protein was synthesized and myristoylated at its N-terminus (myr-[…]-COOH) (SEQ ID NO: 8) by Twentyfirst Century Biochemicals. […] For the calcium imaging assay, the peptides were added to the calcium imaging buffer with a final concentration of 200 nM and incubated for at least […] at room temperature. For the mice behavioral assays, the peptides (5 μL, 2 mM) were injected subcutaneously in the hindpaw at least 30 minutes before testing. For the rat behavior assays, human T100-3Q (h-T100), a palmitoylated cell permeable peptide mutated based on the C terminus of human sequence in Tmem100, was applied. The sequence is Palmitoyl-[…]-COOH (SEQ ID NO: 7).

Experiment [3] has as its system MO-induced pain in wild-type mice. The experiment can be described thus: Mustard oil injection in hindpaw: acute nocifensive behavior and von Frey mechanical hyperalgesia. Type of experiment: in vivo, mouse. The method, then: Mice were placed in a transparent plastic box (4.5×5×10 cm) on a metal mesh and acclimatized for 30 minutes prior to testing. Each mouse was tested more than 5 times at a specific force manually, and the threshold was determined by the lowest force needed to elicit responses more than 50% of the time.
Mice were injected intradermally in the hind paw with 6 μL of 0.2% mustard oil (Sigma-Aldrich 377430) with Hamilton needles (80300). The mice were placed in a plexiglass cylinder, and the total time spent licking and flinching was recorded for the first 10 minutes after injection. Thirty and sixty minutes after injection, the mice were assayed with von Frey filaments for mechanical hyperalgesia.
The sequence from the last 28 amino acids of the C-terminus of the Tmem100-3Q mutant protein was synthesized and myristoylated at its N-terminus (myr-[…]-COOH) (SEQ ID NO: 8) by Twentyfirst Century Biochemicals. […] For the calcium imaging assay, the peptides were added to the calcium imaging buffer with a final concentration of 200 nM and incubated for at least […] at room temperature. For the mice behavioral assays, the peptides (5 μL, 2 mM) were injected subcutaneously in the hindpaw at least 30 minutes before testing. For the rat behavior assays, human T100-3Q (h-T100), a palmitoylated cell permeable peptide mutated based on the C terminus of human sequence in Tmem100, was applied. […]

For experiment [4], the system named is T1, TRPA1.
T1 construct: MO (10 μM)-evoked Ca2+ influx; other: TRPA1+TRPV1+Tmem100-3Q (1:1:4) CHO cells; MO (10 μM)-gated whole-cell current density; other: Vh=-60 mV; TRPA1+TRPV1+Tmem100-3Q (1:1:4) CHO cells; MO (10 μM)-induced single-channel activity (NPo); co-expressed with TRPA1+TRPV1 (1:1:4) in CHO cells
The experiment can be described thus: MO-evoked Ca2+ influx into CHO cells expressing TRPA1+TRPV1. Particulars: TRPA1+TRPV1+Tmem100-3Q (1:1:4) CHO cells. The format is cell-based. The method, then:
Calcium imaging assays were performed as previously described (Liu et al., 2009). Cells were loaded with 2 μM fura 2-acetomethoxy ester (Molecular Probes) for 30 min in the dark at room temperature or for 45 minutes at 37° C. for DRG and cell lines, respectively. After washing, cells were imaged at 340 and 380 nm excitation to detect intracellular free calcium under a fluorescent microscope (Nikon Eclipse TE2000-S) and Lambda 10B shutter (Sutter Instrument). The cells were bathed in calcium imaging buffer (pH 7.45, 130 mM NaCl, 3 mM KCl, 2.5 mM CaCl2, 10 mM HEPES, 10 mM glucose, 1.2 mM NaHCO3, with sucrose to increase osmolarity to 290 mOsm). The reagents and buffers were applied through a gravity perfusion system at a rate of […], including mustard oil (Sigma 377430), cinnamaldehyde (Sigma C80687), menthol (Sigma M2780), and capsaicin (Sigma M2028). Cells with high baseline 340/380 values (>1.5) were excluded for analysis. For DRG neurons, IB4 staining was performed in the chamber with the dilution of 1:200 (Molecular Probes 121412) for 160 seconds before washing off at the end of each test. Images were processed and analyzed with NIS-Elements BR 2.30 software (Nikon). A responsive cell was defined as one that with greater than a 20% increase in the 340/380 ratio above the baseline. […] The data was analyzed with the experimenter blinded to the genotypes or constructs transfected.

In experiment [5] the target is TRPV1 (expressed in heterologous cells: CHO, HEK293T). In words: cell-based or functional assay.
The target in experiment [6] is TRPA1 (expressed in heterologous cells: CHO, HEK293T). In words: cell-based or functional assay.
Sequence of TRPA1 (expressed in heterologous cells: CHO, HEK293T) (O75762 whole entry): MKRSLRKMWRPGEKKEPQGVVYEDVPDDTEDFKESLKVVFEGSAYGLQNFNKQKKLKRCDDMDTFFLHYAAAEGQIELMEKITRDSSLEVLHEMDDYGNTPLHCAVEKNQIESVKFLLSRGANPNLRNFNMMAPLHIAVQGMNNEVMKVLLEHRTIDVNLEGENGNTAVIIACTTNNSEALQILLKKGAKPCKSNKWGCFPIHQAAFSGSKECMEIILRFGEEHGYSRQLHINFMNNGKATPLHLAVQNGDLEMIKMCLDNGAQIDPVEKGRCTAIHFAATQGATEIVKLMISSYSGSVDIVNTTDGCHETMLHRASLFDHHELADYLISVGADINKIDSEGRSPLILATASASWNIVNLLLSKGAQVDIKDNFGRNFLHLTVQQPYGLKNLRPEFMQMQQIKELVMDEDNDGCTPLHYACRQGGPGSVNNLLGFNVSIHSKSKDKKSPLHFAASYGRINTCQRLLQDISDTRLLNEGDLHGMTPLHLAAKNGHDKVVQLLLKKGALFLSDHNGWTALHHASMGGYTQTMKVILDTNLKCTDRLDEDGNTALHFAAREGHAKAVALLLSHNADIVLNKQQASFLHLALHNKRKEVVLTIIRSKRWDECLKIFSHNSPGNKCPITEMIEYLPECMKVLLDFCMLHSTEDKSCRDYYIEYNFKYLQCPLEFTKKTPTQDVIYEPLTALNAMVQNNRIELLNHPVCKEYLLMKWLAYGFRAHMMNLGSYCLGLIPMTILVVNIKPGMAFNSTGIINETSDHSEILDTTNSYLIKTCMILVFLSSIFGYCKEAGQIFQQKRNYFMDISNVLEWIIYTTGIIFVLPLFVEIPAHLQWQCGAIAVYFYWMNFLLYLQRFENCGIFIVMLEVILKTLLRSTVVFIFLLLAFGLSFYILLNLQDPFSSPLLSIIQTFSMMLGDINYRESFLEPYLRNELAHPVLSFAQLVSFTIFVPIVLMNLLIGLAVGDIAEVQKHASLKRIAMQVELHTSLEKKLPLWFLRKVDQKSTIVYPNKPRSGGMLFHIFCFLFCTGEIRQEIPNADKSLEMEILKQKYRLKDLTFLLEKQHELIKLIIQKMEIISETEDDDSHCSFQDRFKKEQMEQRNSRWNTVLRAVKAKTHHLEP

* marks the point of attachment. Myristoyl = CCCCCCCCCCCCCC(=O)*

For “myr-QRVLEQVLQNWSRRANVKQAQKFQVKCT-COOH (Myristoyl-QRVLEQVLQNWSRRANVKQAQKFQVKCT-OH; SMILES CCCCCCCCCCCCCC(=O)N[C@@H](CCC(N)=O)C(=O)N[C@@H](CCCNC(=N)N)C(=O)N[C@H](C(=O)N[C@@H](CC(C)C)C(=O)N[C@@H](CCC(=O)O)C(=O)N[C@@H](CCC(N)=O)C(=O)N[C@H](C(=O)N[C@@H](CC(C)C)C(=O)N[C@@H](CCC(N)=O)C(=O)N[C@@H](CC(N)=O)C(=O)N[C@@H](Cc1c[nH]c2ccccc12)C(=O)N[C@@H](CO)C(=O)N[C@@H](CCCNC(=N)N)C(=O)N[C@@H](CCCNC(=N)N)C(=O)N[C@@H](C)C(=O)N[C@@H](CC(N)=O)C(=O)N[C@H](C(=O)N[C@@H](CCCCN)C(=O)N[C@@H](CCC(N)=O)C(=O)N[C@@H](C)C(=O)N[C@@H](CCC(N)=O)C(=O)N[C@@H](CCCCN)C(=O)N[C@@H](Cc1ccccc1)C(=O)N[C@@H](CCC(N)=O)C(=O)N[C@H](C(=O)N[C@@H](CCCCN)C(=O)N[C@@H](CS)C(=O)N[C@H](C(=O)O)[C@@H](C)O)C(C)C)C(C)C)C(C)C)C(C)C) [scrambled]”, the “conditioned place preference: time in drug-paired chamber, SNL rats” value in experiment [1] was “no effect”. Moreover, the “acute nocifensive behaviors induced by intradermal capsaicin injection” value in experiment [2] was determined as 70 ± 11 s. For the same molecule, the “MO-induced mechanical hyperalgesia (mechanical threshold)” value in experiment [3] (peptide 5 μl of 2 mM pre-treatment) worked out at 0.1 ± 0.03 g. The “MO-induced acute nocifensive behavior (time)” value in experiment [3] (peptide 5 μl of 2 mM pre-treatment in hindpaw) is 80 ± 9 s.

B1: Tmem100-3Q mutant (full-length, mouse) (protein)
chain: MTEESTKENLGAPKSPTPVTMEKNPKREVVVTTGPLVSEVQLMAATGGAELSCYRCIIPFAVVVFITGIVVTAVAYSFNSHGSIISIFGLVLLSSGLFLLASSALCWKVRQRNKKVQQQESQTALVVNQRCLFA
With B1, the “MO (10 μM)-evoked Ca2+ influx” value in experiment [4] turned out to be 321 ± 18.2 nM. This molecule had a CAP (100 nM)-induced single-channel activity (NPo), CHO cells in experiment [5] of 0.73. In experiment [6], the MO (10 µM)-induced single-channel activity (NPo), CHO cells is 1.05.
